The supplement of paper PMC11208160

Assay: recombinant UMI read abundance after kanamycin selection (control-corrected) (log10(CPM+1)); higher = more efficient recombination; extreme values may be limits of the assay; sequences stand for … in AGTGCAGAGAAAATCGGCCAGTTTTCTCTGCCTGCAGTCCGCATGCCGTGGGACCCCTTGGGTTCTAACCTGTTGCCTAGATTTATGCAGCGGACTGCCTTTCTCCCAAAGTGATAAACCGG…AGGTTGGTTTCACT; site = the 11-nt donor
In short: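 Values are reported as log10(CPM+1), obtained by converting sequencing counts to CPM, averaging replicates and scaling by control-derived factors. The counts came from recombinant UMIs amplified by PCR across the donor–target junction. These UMIs came from a pooled Escherichia coli screen of donor and donor-binding-loop pairs for the IS621 bridge recombinase, plated with IPTG (0.07 mM) plus kanamycin or left unselected, in two replicates each.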
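Further: IS621 bridge recombinase in Escherichia coli cells against a fixed T5 target plasmid.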

Row | Sequence | recombinant UMI read abundance (log10)
1 | TTAGCTGCATGGACCGGTTTTCCCGGTAATCCGTATTTGTG (site TTAGCTGCTCT) | 0.162
2 | TTAGCTGCATGGACCGGTTTTCCCGGTAATCCGTATTTGTG (site TTAGCTGCTGA) | 0.631
3 | TTAGCTGCATGGACCGGTTTTCCCGGTAATCCGTATTTGTG (site TTAGCTGCTTA) | 0.192
4 | TTAGCTGCATGGACCGGTTTTCCCGGTAATCCGTATTTGTG (site TTAGCTTCTCA) | 0.00647
5 | TTAGCTGCATGGACCGGTTTTCCCGGTAATCCGTATTTGTG (site TTAGGTGCTCA) | 0.0094
6 | TTAGCTGCATGGACCGGTTTTCCCGGTAATCCGTATTTGTG (site TTAGTTGCTCA) | 0.00547
7 | TTAGCTGCATGGACCGGTTTTCCCGGTAATCCGTATTTGTG (site TTATCTGCTCA) | 0.0225
8 | TTAGCTGCATGGACCGGTTTTCCCGGTAATCCGTATTTGTG (site TTCGCTGCTCA) | 0.00425
9 | TTAGCTGCATGGACCGGTTTTCCCGGTAATCCGTATTTGTG (site TTGGCTGCTCA) | 0.0755
10 | TTAGCTGCATGGACCGGTTTTCCCGGTAATCCGTATTTGTG (site TTTGCTGCTCA) | 0.00733
11 | TTAGGTGCATGGACCGGTTTTCCCGGTAATCCGTATTTGGT (site TTAGGTGCTAC) | 1.17
12 | TTAGGTGCATGGACCGGTTTTCCCGGTAATCCGTATTTGTG (site TTAGATGCTCA) | 0.787
13 | TTAGGTGCATGGACCGGTTTTCCCGGTAATCCGTATTTGTG (site TTAGCTGCTCA) | 0.0453
14 | TTAGGTGCATGGACCGGTTTTCCCGGTAATCCGTATTTGTG (site TTAGGTGCTCA) | 0.831
15 | TTAGGTGCATGGACCGGTTTTCCCGGTAATCCGTATTTGTG (site TTAGTTGCTCA) | 0.0384
16 | TTAGTAACATGGACCGGTTTTCCCGGTAATCCGTATTTGAC (site CTAGTATCTGT) | 1.07
17 | TTAGTAACATGGACCGGTTTTCCCGGTAATCCGTATTTGAC (site TTAGTAACTGT) | 2.16
18 | TTAGTATCATGGACCGGTTTTCCCGGTAATCCGTATTTGCA (site ACAGTATCTTG) | 1.99
19 | TTAGTATCATGGACCGGTTTTCCCGGTAATCCGTATTTGCA (site TTAGTATCTTG) | 1.42
20 | TTAGTCTCATGGACCGGTTTTCCCGGTAATCCGTATTTGAT (site TTAGTCTCTAT) | 2.82
21 | TTAGTTACATGGACCGGTTTTCCCGGTAATCCGTATTTGCC (site TTAGTTACTGG) | 2.18
22 | TTATACTCATGGACCGGTTTTCCCGGTAATCCGTATTTGCA (site TAATACTCTTG) | 1.93
23 | TTATACTCATGGACCGGTTTTCCCGGTAATCCGTATTTGCA (site TCATACTCTTG) | 1.9

Row | Sequence | recombinant UMI read abundance (log10)
24 | TTATACTCATGGACCGGTTTTCCCGGTAATCCGTATTTGCA (site TGATACTCTTG) | 2.05
25 | TTATACTCATGGACCGGTTTTCCCGGTAATCCGTATTTGCA (site TTATACTCTTG) | 2.72
26 | TTATCATCATGGACCGGTTTTCCCGGTAATCCGTATTTGAG (site TTATCATCTCT) | 0.385
27 | TTATGACCATGGACCGGTTTTCCCGGTAATCCGTATTTGAC (site TTATGACCTGT) | 0
28 | TTATGCACATGGACCGGTTTTCCCGGTAATCCGTATTTGGC (site TTATGCACTGC) | 1.93
29 | TTATGTCCATGGACCGGTTTTCCCGGTAATCCGTATTTGTA (site TTATGTCCTTA) | 0.134
30 | TTATGTCCATGGACCGGTTTTCCCGGTAATCCGTATTTGTC (site TTATGTCCTGA) | 0.363
31 | TTCAAACCATGGACCGGTTTTCCCGGTAATCCGTATTTGCG (site TTCAAACCTCG) | 0
32 | TTCAAGACATGGACCGGTTTTCCCGGTAATCCGTATTTGCC (site TTCAAGACTGG) | 0
33 | TTCACCGCATGGACCGGTTTTCCCGGTAATCCGTATTTGCG (site TACACCGCTCG) | 0.00969
34 | TTCACCGCATGGACCGGTTTTCCCGGTAATCCGTATTTGCG (site TCCACCGCTCG) | 0.017
35 | TTCACCGCATGGACCGGTTTTCCCGGTAATCCGTATTTGCG (site TGCACCGCTCG) | 0.0109
36 | TTCACCGCATGGACCGGTTTTCCCGGTAATCCGTATTTGCG (site TTCACCGCTCG) | 0.0246
37 | TTCACCTCATGGACCGGTTTTCCCGGTAATCCGTATTTGGT (site TTCACCTCTAC) | 0
38 | TTCACTACATGGACCGGTTTTCCCGGTAATCCGTATTTGAG (site TTCACTACTCT) | 0.00204
39 | TTCACTCCATGGACCGGTTTTCCCGGTAATCCGTATTTGAG (site TTCACTCCTCT) | 0
40 | TTCATTGCATGGACCGGTTTTCCCGGTAATCCGTATTTGAA (site TTCATTGCTTT) | 0
41 | TTCCACCCATGGACCGGTTTTCCCGGTAATCCGTATTTGAC (site TTCCACCCTGT) | 0
42 | TTCCCTTCATGGACCGGTTTTCCCGGTAATCCGTATTTGCA (site TTCCCTTCTTG) | 0
43 | TTCCGCTCATGGACCGGTTTTCCCGGTAATCCGTATTTGTG (site TTCCGCTCTCA) | 0
44 | TTCCTTTCATGGACCGGTTTTCCCGGTAATCCGTATTTGAT (site TTCCTTTCTAT) | 0
45 | TTCGACCCATGGACCGGTTTTCCCGGTAATCCGTATTTGGC (site TTCGACCCTGC) | 0
46 | TTCGACTCATGGACCGGTTTTCCCGGTAATCCGTATTTGAC (site TTCGACTCTGT) | 1.03

Row | Sequence | recombinant UMI read abundance (log10)
47 | TTCGACTCATGGACCGGTTTTCCCGGTAATCCGTATTTGTT (site TTCGACTCTAA) | 1.01
48 | TTCGCGCCATGGACCGGTTTTCCCGGTAATCCGTATTTGTA (site TTCGCGCCTTA) | 0.00689
49 | TTCGCTGCATGGACCGGTTTTCCCGGTAATCCGTATTTGGG (site TTCGCTGCTCC) | 0.00922
50 | TTCGGTGCATGGACCGGTTTTCCCGGTAATCCGTATTTGCC (site TTCGGTGCTGG) | 0
51 | TTCGGTTCATGGACCGGTTTTCCCGGTAATCCGTATTTGAC (site TTCGGTTCTGT) | 0
52 | TTCGGTTCATGGACCGGTTTTCCCGGTAATCCGTATTTGGA (site TTCGGTTCTTC) | 0
53 | TTCTAAACATGGACCGGTTTTCCCGGTAATCCGTATTTGCA (site TTCTAAACTTG) | 2.65
54 | TTCTATTCATGGACCGGTTTTCCCGGTAATCCGTATTTGCT (site TTCTATTCTAG) | 0
55 | TTCTCAGCATGGACCGGTTTTCCCGGTAATCCGTATTTGAG (site TTCTCAGCTCT) | 0.00607
56 | TTCTCTCCATGGACCGGTTTTCCCGGTAATCCGTATTTGAA (site TTCTCTCCTTT) | 0.019
57 | TTCTTGACATGGACCGGTTTTCCCGGTAATCCGTATTTGTG (site TTCTTGACTCA) | 0.0069
58 | TTGAATCCATGGACCGGTTTTCCCGGTAATCCGTATTTGGA (site TTGAATCCTTC) | 0.123
59 | TTGACCCCATGGACCGGTTTTCCCGGTAATCCGTATTTGAT (site TTGACCCCTAT) | 0.347
60 | TTGACGTCATGGACCGGTTTTCCCGGTAATCCGTATTTGTT (site TTGACGTCTAA) | 0.101
61 | TTGAGAACATGGACCGGTTTTCCCGGTAATCCGTATTTGAC (site TTGAGAACTGT) | 0.447
62 | TTGAGAACATGGACCGGTTTTCCCGGTAATCCGTATTTGCC (site TTGAGAACTGG) | 1.36
63 | TTGATCTCATGGACCGGTTTTCCCGGTAATCCGTATTTGCG (site TTGATCTCTCG) | 1.95
64 | TTGCAGCCATGGACCGGTTTTCCCGGTAATCCGTATTTGCT (site TTGCAGCCTAG) | 0.0502
65 | TTGCATGCATGGACCGGTTTTCCCGGTAATCCGTATTTGCA (site TTGCATGCTTG) | 0
66 | TTGCCGGCATGGACCGGTTTTCCCGGTAATCCGTATTTGGC (site TAGCCGGCTGC) | 0.00655
67 | TTGCCGGCATGGACCGGTTTTCCCGGTAATCCGTATTTGGC (site TCGCCGGCTGC) | 0
68 | TTGCCGGCATGGACCGGTTTTCCCGGTAATCCGTATTTGGC (site TGGCCGGCTGC) | 0
